From US8008458B2, “Fatty acid phenolic conjugates” (Indiana University Health Inc., priority 2002, dated 2011) come the findings set out here.

Holding throughout (type): cell-based
Assay [1] relates to MDA-231-MB breast cancer cells. Description: Induction of apoptosis, activated caspase 3 (FITC-DEVD-FMK fluorescence microscopy). Conditions: 25 μM or similar concentrations, 4 hours at 37° C. (FIG. 11). On the procedure: DHA and EPA conjugates of propofol are used to test their activities against MDA-231-MB breast cancer cells. Induction of apoptosis was assayed by incubating cells with DHA, EPA, or propofol alone or DHA, EPA with propofol as well as DHA-, and EPA as propofol conjugates for 4 hours at 37° C.

Assay [2] has as its system breast carcinoma MDA-MB-231 cells. As to the kind of experiment: Cell adhesion assay, adherence to human vitronectin. Conditions: 45 min at 37° C., compared with vehicle treated control (FIG. 13). As for the experimental part:
The cell adhesion assay was performed according to the procedure described in Deryugina, E. I., Ratnikov, B., Postnova, T. I., Rozanov, D. V., Strongin, A. Y. (2002) J. Biol. Chem. 277, 9749-9756. The cell adhesion assay was preformed using cyctomatrix of human vitronectin in a 96-well plate (Chemicon International Incorp. of Temecula, Calif.). Each well was incubated with 100 μL of breast carcinoma MDA-MB-231 cells (1×10^5 cells/ml) at 37° C. for 45 min in a CO2 incubator. Individual wells were treated with one of the following: (a) individual agents: DHA, EPA, and propofol; or (b) the combined agents: DHA and propofol, and EPA and propofol; or (c) the conjugates DHA-propofol, or EPA propofol (prepared as described above in Examples 2 and 3). After incubation, the wells were washed three times with PBS, and the adhered cells were stained with crystal violet in 10% ethanol for 5 min at room temperature. The excess stain was subsequently removed by washing the wells six times with PBS. The stained cells were dissolved in 100 microliters (μL) of solubilizing buffer (1:1 mixture of 0.1M NaH2PO4 at a pH of 4.5 in 50% ethanol) and the absorbance of each of the resulting samples was read at 540 nm. The absorbance of dye in the control (vehicle treated cells) was regarded as 100%, and the percent adherence of treated cells was calculated in comparison to that control.

The subject of another assay is Jurkat leukemic cells. As to the kind of experiment: Jurkat leukemic cell growth and viability (WST-1 Cell Proliferation Kit). To be noted: RVT alone, 10 μM, 24 hours, RPMI media containing 2% serum. On the procedure:
In order to evaluate the anti-proliferative activity and synergism between DHA and RVT, the two compounds were added separately to cell cultures containing Jurkat leukemic cells. In a separate experiment, a mixture of DHA and RVT components were added to the Jurkat leukemic cell cultures. The results are illustrated in FIG. 8 as a bar graph. Jurkat cells (Jurkat clone E6-1 from American Type Culture Collection of Manassas, Va. (5×10^4/well)) were incubated with either DHA or RVT, or a combination as indicated in a 96-well plate for 24 hours at 37° C. using a 5% CO2 in RPMI media containing 2% serum. Cell growth and viability were determined using a WST-1 Cell Proliferation Kit (sold by Roche Molecular Biochemicals of Indianapolis, Ind.). The control was a “ethanol-treated” control group. For the results illustrated in FIG. 8, the average was taken of three separate experiments. For the combination of DHA and RVT, a student t test provided a P<0.001 relative to the “ethanol-treated” control group. […] However, when the two components were combined into a single formulation, a synergistic inhibition of Jurkat cell growth was observed. The combination of DHA (30 μM) and RVT (10 μM) inhibited cell growth by about 60%. This is indicative of a synergistic interaction between DHA and RVT on cancer cell growth. […]
Background: Tetrazolium assays rely on reduction of a dye to a coloured formazan, in cell work by metabolically active cells.

The next assay concerns Jurkat cells. As to the kind of experiment: Jurkat leukemic cell apoptosis (YO-PRO-1 labeling, flow cytometry). On the procedure: The DHA-RVT ester prepared according to Example 1 was dissolved in DMSO. This solution was used to treat Jurkat cells labeled with YO-PRO-1 (sold by Molecular Probes of Oregon), which is a green fluorescent dye used in flagging apoptotic cells. The labeled cells were analyzed using a FACStar-plus flow cytometer equipped with a water-cooled argon laser emitting at a frequency of 488 nm. Detection of the fluorescent probe was ascertained using a 530±30 band-pass filter. The data depicted in FIGS. 10a-c are illustrated in the form of a histogram. The fluorescent intensity is indicative of apoptotic expression. The unfilled histogram represents the labeled, non-treated cells (1); the filled histogram represents the treated cells (2). […] At approximately 1 μM concentration, the DHA-RVT ester induced apoptosis in approximately 50% of the Jurkat cells (FIG. 10b) while at a concentration of 0.1 μM the ester had little effect on the Jurkat cells (FIG. 10c). Concentrations of resveratrol (10 μM) plus DHA (10 μM) have no effect on Jurkat cell growth.
(In flow cytometry, cells or beads pass a laser one at a time.)

For `CCC=CCC=CCC=CCC=CCC=CCC=CCCC(=O)Oc1c(C(C)C)cccc1C(C)C` [DHA-propofol, 2,6 Diisopropylphenyldocosa-Hexaenoate], the induction of apoptosis result in assay [1] was “effectively induced apoptosis”. Further, the “inhibition of adherence of cancerous cells to vitronectin” value (shortened to “inhibition”) in assay [2] is “inhibition of adherence”.
With `CC/C=C\C/C=C\C/C=C\C/C=C\C/C=C\CCCC(=O)O` [EPA, eicosopentenoic acid, reference compound], the induction of apoptosis entry in assay [1] is recorded as “not very effective”. Besides, in assay [2], the “inhibition” value is given as “not displayed”.
Consider `CCC=CCC=CCC=CCC=CCC=CCCCC(=O)Oc1c(C(C)C)cccc1C(C)C` [EPA-propofol, 2,6-Diisopropylphenyl Eicosopentenoate], for which the induction of apoptosis entry in assay [1] was “effectively induced apoptosis”. Besides, in assay [2], the “inhibition” value was “inhibition of adherence”.
On to `Oc1ccc(C=Cc2cc(O)cc(O)c2)cc1` [RVT, resveratrol], for which the “effect on Jurkat cell growth” value in the assay on Jurkat leukemic cells was “neither the DHA (up to 30 μM) nor the RVT (10 μM) alone had any significant effect”.
For the compound `CC(C)c1cccc(C(C)C)c1O` [propofol, 2,6-diisopropylphenol, reference compound], the induction of apoptosis result in assay [1] was “not very effective”. Also, in assay [2], the “inhibition” value is recorded as “not displayed”.
For the compound “resveratrol ester of docosahexaenoic acid [DHA-RVT ester]”, in the assay on Jurkat cells (0.1 μM (FIG. 10c)), the “effect on Jurkat cells (apoptosis)” value is “little effect”. Also, the “apoptosis of Jurkat cells” value with Jurkat cells (10 μM (FIG. 10a)) is “apoptosis in nearly all”. For the same compound, in the assay on Jurkat cells (approximately 1 μM (FIG. 10b)), the “Jurkat cells in which apoptosis was induced” value is “approximately 50%”.
